Where “and” joins values, the source holds several entries; their conditions need not be identical. Equal entries are not always repeated.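 Dose response: 5 concentrations. Exposure: 48 h. Format: 96-well plates. Endpoint: linear interpolation; highest concentration if not reached. Abbreviation: GI50, concentration required for 50% inhibition of growth. TGI: concentration producing complete growth inhibition.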
Legend:
Assay in all cases: NCI tumour cell line growth inhibition, 48 h; in the data active = GI50 below about 0.43 µM; inactive = the rest
SR leukemia = system: SR leukemia
SF-268 CNS = system: SF-268 CNS
SK-MEL-5 melanoma = system: SK-MEL-5 melanoma
HOP-62 NSCLC = system: HOP-62 NSCLC
UACC-62 melanoma = system: UACC-62 melanoma
SK-MEL-28 melanoma = system: SK-MEL-28 melanoma
KM12 colon = system: KM12 colon
NCI-H226 lung = system: NCI-H226 lung
RPMI-8226 leukemia = system: RPMI-8226 leukemia
OVCAR-5 ovarian = system: OVCAR-5 ovarian

O=C1NC(=S)NC(=O)C1=Cc1cc2c(cc1[N+](=O)[O-])OCO2
> 100 µM: TGI (SR leukemia) | TGI (SF-268 CNS) | TGI (SK-MEL-5 melanoma) | TGI (HOP-62 NSCLC) | TGI (UACC-62 melanoma) | TGI (SK-MEL-28 melanoma) | TGI (KM12 colon) | TGI (NCI-H226 lung) | TGI (RPMI-8226 leukemia)

CC(=O)Nc1ccc(/C=C/[N+](=O)[O-])cc1
4 µM: TGI (UACC-62 melanoma)
4.13 µM: TGI (SK-MEL-28 melanoma)
3.94 µM: TGI (NCI-H226 lung)
9.25 µM: TGI (OVCAR-5 ovarian)
5.97 µM: TGI (SK-MEL-5 melanoma)
4.73 µM: TGI (RPMI-8226 leukemia)
21.4 µM: TGI (HOP-62 NSCLC)
26.7 µM: TGI (KM12 colon)
11.2 µM: TGI (SF-268 CNS)

N#CC(C(=O)/C(=N/N)C(C#N)c1ccc(Cl)cc1)c1ccc(Cl)cc1 (stereo unspecified)
> 100 µM: TGI (SF-268 CNS) | TGI (SK-MEL-5 melanoma) | TGI (HOP-62 NSCLC) | TGI (UACC-62 melanoma) | TGI (OVCAR-5 ovarian) | TGI (KM12 colon) | TGI (NCI-H226 lung) | TGI (RPMI-8226 leukemia)

COC(=O)C1CC(C(=O)OC)c2nc3cc(C)ccc3nc21 (stereo unspecified)
> 100 µM: TGI (SF-268 CNS) | TGI (SK-MEL-5 melanoma) | TGI (HOP-62 NSCLC) | TGI (UACC-62 melanoma) | TGI (SK-MEL-28 melanoma) | TGI (OVCAR-5 ovarian) | TGI (KM12 colon) | TGI (NCI-H226 lung) | TGI (RPMI-8226 leukemia)

CCCCn1c2cc(OCc3cn(-c4ccc(Cl)cc4)nn3)ccc2c2ccnc(C)c21
9.87 µM: TGI (SK-MEL-5 melanoma)
inactive: GI50 (SR leukemia) 5.2 µM | GI50 (SF-268 CNS) 9.15 µM | GI50 (SK-MEL-5 melanoma) 5.35 µM | GI50 (UACC-62 melanoma) 4.96 µM | GI50 (SK-MEL-28 melanoma) 5.82 µM | GI50 (OVCAR-5 ovarian) 6.55 µM | GI50 (KM12 colon) 10.1 µM | GI50 (NCI-H226 lung) 5.51 µM | GI50 (RPMI-8226 leukemia) 3.43 µM
21.5 µM: TGI (OVCAR-5 ovarian)
22.4 µM: TGI (SR leukemia)
11.8 µM: TGI (UACC-62 melanoma)
14 µM: TGI (SK-MEL-28 melanoma)
14.1 µM: TGI (NCI-H226 lung)
> 33.3 µM: TGI (SF-268 CNS) | TGI (KM12 colon)
11.9 µM: TGI (RPMI-8226 leukemia)

CC(=O)Nc1ccc(C(=O)N2N=C(C)/C(=C/c3ccccc3O)C2=O)cc1
> 100 µM: TGI (SR leukemia) | TGI (SF-268 CNS) | TGI (SK-MEL-5 melanoma) | TGI (HOP-62 NSCLC) | TGI (SK-MEL-28 melanoma) | TGI (OVCAR-5 ovarian) | TGI (KM12 colon) | TGI (NCI-H226 lung) | TGI (RPMI-8226 leukemia)

C(=N\Nc1ccccn1)/c1ccccn1
inactive: GI50 (SK-MEL-28 melanoma) 0.816 µM | GI50 (OVCAR-5 ovarian) 0.588 µM | GI50 (KM12 colon) 0.47 µM | GI50 (RPMI-8226 leukemia) 6.17 µM
> 23.4 µM: TGI (SF-268 CNS)
> 100 µM: TGI (SR leukemia) | TGI (HOP-62 NSCLC) | TGI (SK-MEL-28 melanoma) | TGI (OVCAR-5 ovarian) | TGI (KM12 colon) | TGI (RPMI-8226 leukemia)
2.28 µM: TGI (UACC-62 melanoma)
active: GI50 (SR leukemia) 0.367 µM | GI50 (SF-268 CNS) 0.309 µM | GI50 (HOP-62 NSCLC) 0.38 µM | GI50 (UACC-62 melanoma) 0.327 µM | GI50 (NCI-H226 lung) 0.356 µM

COc1ccc2[nH]c(-c3ccccn3)cc(=O)c2c1
> 100 µM: TGI (SK-MEL-5 melanoma) | TGI (HOP-62 NSCLC) | TGI (UACC-62 melanoma) | TGI (SK-MEL-28 melanoma) | TGI (OVCAR-5 ovarian) | TGI (KM12 colon) | TGI (NCI-H226 lung) | TGI (RPMI-8226 leukemia)
inactive: GI50 (SF-268 CNS) 24.2 µM | GI50 (SK-MEL-5 melanoma) 28.5 µM | GI50 (NCI-H226 lung) 36.6 µM
65.8 µM: TGI (SF-268 CNS)

N#CC(=S)Nc1cccc(Cl)c1
> 100 µM: TGI (SF-268 CNS) | TGI (HOP-62 NSCLC) | TGI (UACC-62 melanoma) | TGI (SK-MEL-28 melanoma) | TGI (OVCAR-5 ovarian) | TGI (KM12 colon) | TGI (NCI-H226 lung)
61.4 µM: TGI (RPMI-8226 leukemia)
44.5 µM: TGI (SK-MEL-5 melanoma)

O=c1c2ccccc2c2ccccc2c(=O)n1-c1cc2c3ccccc3ccc2c2ccccc12
> 100 µM: TGI (SF-268 CNS) | TGI (SK-MEL-5 melanoma) | TGI (HOP-62 NSCLC) | TGI (UACC-62 melanoma) | TGI (SK-MEL-28 melanoma) | TGI (OVCAR-5 ovarian) | TGI (KM12 colon) | TGI (NCI-H226 lung) | TGI (RPMI-8226 leukemia)

CC12CCC3C(CC=C4CC(O)CCC43C)C1C/C(=C\N1CCCC1)C2=O (stereo unspecified)
inactive: GI50 (SF-268 CNS) > 100 µM | GI50 (SK-MEL-5 melanoma) 64.5 µM | GI50 (HOP-62 NSCLC) > 100 µM | GI50 (UACC-62 melanoma) 41.2 µM | GI50 (SK-MEL-28 melanoma) > 100 µM | GI50 (OVCAR-5 ovarian) > 100 µM | GI50 (KM12 colon) 73.3 µM | GI50 (NCI-H226 lung) > 100 µM | GI50 (RPMI-8226 leukemia) 37 µM
> 100 µM: TGI (SF-268 CNS) | TGI (SK-MEL-5 melanoma) | TGI (HOP-62 NSCLC) | TGI (UACC-62 melanoma) | TGI (SK-MEL-28 melanoma) | TGI (OVCAR-5 ovarian) | TGI (KM12 colon) | TGI (NCI-H226 lung) | TGI (RPMI-8226 leukemia)

COCCn1cc(-c2csc(-c3c[nH]c4ccccc34)n2)c2cccnc21
> 100 µM: TGI (SR leukemia) | TGI (SF-268 CNS) | TGI (SK-MEL-5 melanoma) | TGI (HOP-62 NSCLC) | TGI (UACC-62 melanoma) | TGI (SK-MEL-28 melanoma) | TGI (OVCAR-5 ovarian) | TGI (KM12 colon)
inactive: GI50 (SR leukemia) 3.02 µM | GI50 (SF-268 CNS) 6.98 µM | GI50 (SK-MEL-5 melanoma) 3.22 µM | GI50 (HOP-62 NSCLC) 2.82 µM | GI50 (UACC-62 melanoma) 4.58 µM | GI50 (SK-MEL-28 melanoma) 8.18 µM | GI50 (OVCAR-5 ovarian) 28.2 µM | GI50 (KM12 colon) 0.762 µM

CC1OC(n2ncc(=O)[nH]c2=O)C=CC1=O (stereo unspecified)
> 100 µM: TGI (SF-268 CNS) | TGI (HOP-62 NSCLC) | TGI (UACC-62 melanoma) | TGI (OVCAR-5 ovarian) | TGI (KM12 colon) | TGI (NCI-H226 lung)
inactive: GI50 (SF-268 CNS) > 100 µM and 36.6 µM | GI50 (HOP-62 NSCLC) > 100 µM and 42.1 µM
99.3 µM and 62 µM: TGI (RPMI-8226 leukemia)
> 100 µM and 92.9 µM: TGI (SR leukemia)
93.8 µM and 46 µM: TGI (SK-MEL-28 melanoma)

CCCC1c2c(ccc3ccccc23)Oc2ccc3ccccc3c21
98.6 µM: TGI (RPMI-8226 leukemia)
> 100 µM: TGI (SF-268 CNS) | TGI (SK-MEL-5 melanoma) | TGI (HOP-62 NSCLC) | TGI (UACC-62 melanoma) | TGI (SK-MEL-28 melanoma) | TGI (OVCAR-5 ovarian) | TGI (KM12 colon) | TGI (NCI-H226 lung)

CC(C)C(=O)/C=C/c1ccccc1
> 100 µM: TGI (SR leukemia) | TGI (SF-268 CNS) | TGI (SK-MEL-5 melanoma) | TGI (UACC-62 melanoma) | TGI (SK-MEL-28 melanoma) | TGI (OVCAR-5 ovarian) | TGI (KM12 colon) | TGI (RPMI-8226 leukemia)

N[C@@H](Cc1c[nH]c2ccccc12)C(=O)NC1CCN(C(=O)c2c[nH]c3ccccc23)CC1
inactive: GI50 (SF-268 CNS) > 100 µM | GI50 (SK-MEL-5 melanoma) > 100 µM | GI50 (HOP-62 NSCLC) > 100 µM | GI50 (UACC-62 melanoma) > 100 µM | GI50 (SK-MEL-28 melanoma) > 100 µM | GI50 (OVCAR-5 ovarian) > 100 µM | GI50 (KM12 colon) 84.8 µM | GI50 (NCI-H226 lung) > 100 µM | GI50 (RPMI-8226 leukemia) > 100 µM
> 100 µM: TGI (SF-268 CNS) | TGI (SK-MEL-5 melanoma) | TGI (HOP-62 NSCLC) | TGI (UACC-62 melanoma) | TGI (SK-MEL-28 melanoma) | TGI (OVCAR-5 ovarian) | TGI (KM12 colon) | TGI (NCI-H226 lung) | TGI (RPMI-8226 leukemia)

Oc1ccc(/C=N\Nc2ccccn2)c(O)c1
9.55 µM: TGI (HOP-62 NSCLC)
> 100 µM: TGI (SK-MEL-5 melanoma) | TGI (SK-MEL-28 melanoma) | TGI (OVCAR-5 ovarian) | TGI (RPMI-8226 leukemia)
11.7 µM: TGI (SR leukemia)
active: GI50 (SR leukemia) 0.311 µM
20.4 µM: TGI (KM12 colon)
6 µM: TGI (SF-268 CNS)
inactive: GI50 (SF-268 CNS) 0.494 µM | GI50 (SK-MEL-5 melanoma) 2.17 µM | GI50 (HOP-62 NSCLC) 2.14 µM | GI50 (SK-MEL-28 melanoma) 16 µM | GI50 (OVCAR-5 ovarian) 5.48 µM | GI50 (KM12 colon) 1.51 µM | GI50 (NCI-H226 lung) 2.25 µM | GI50 (RPMI-8226 leukemia) 1.45 µM
7.03 µM: TGI (NCI-H226 lung)

C/C(=N/S(=O)(=O)c1ccc(Cl)c(Cl)c1)OCC(C)(C)C
> 100 µM: TGI (SF-268 CNS) | TGI (SK-MEL-5 melanoma) | TGI (HOP-62 NSCLC) | TGI (UACC-62 melanoma) | TGI (SK-MEL-28 melanoma) | TGI (OVCAR-5 ovarian) | TGI (KM12 colon) | TGI (NCI-H226 lung) | TGI (RPMI-8226 leukemia)
